Measurements reported in ChEMBL document CHEMBL1141988, “Bis(aminopyrrolidine)-derived ureas (APUs) as potent MCH1 receptor antagonists” (Bioorg Med Chem Lett, 2005).

Biological target: Melanin-concentrating hormone receptor 1 (Homo sapiens, UniProt Q99705)
Assay: Displacement of [125I]MCH from human Melanin-concentrating hormone 1 (MCH1) receptor modified for optimal expression in HEK293 cells
Format: cell-based

Sequence of Melanin-concentrating hormone receptor 1 (Q99705 whole entry): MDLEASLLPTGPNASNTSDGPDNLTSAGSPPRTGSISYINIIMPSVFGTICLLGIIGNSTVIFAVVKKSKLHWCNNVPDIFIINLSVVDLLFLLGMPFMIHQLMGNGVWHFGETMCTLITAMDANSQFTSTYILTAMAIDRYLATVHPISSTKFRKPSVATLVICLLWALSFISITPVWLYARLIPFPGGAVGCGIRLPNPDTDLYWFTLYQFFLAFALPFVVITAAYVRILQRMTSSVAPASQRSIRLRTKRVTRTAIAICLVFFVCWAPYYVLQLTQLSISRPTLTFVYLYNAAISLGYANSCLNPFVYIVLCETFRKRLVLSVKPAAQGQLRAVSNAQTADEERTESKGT

| Ki [nM] | SMILES |
| --- | --- |
| 96 | CN(C(=O)c1ccc(-c2ccc(C(F)(F)F)cc2)cc1)C1CCN(C(=O)N(C)C2CCN(CCO)C2)C1 (centres undefined) |
| 142 | CN1CCC(N(C)C(=O)CCCN(C)C(=O)c2ccc(-c3ccccc3)cc2)C1 (centres undefined) |
| 5.5 | CN(C)CC1CCc2cc(NC(=O)c3ccc(-c4ccc(F)cc4)cc3)ccc2C1 (centres undefined) |
| 82 | CN(C(=O)c1ccc(-c2ccc(C(F)(F)F)cc2)cc1)C1CCN(C(=O)N(C)C2CCN(CCS(=O)(=O)N3CCCC3)C2)C1 (centres undefined) |
| 18 | CN(C(=O)c1ccc(-c2ccc(C(F)(F)F)cc2)cc1)C1CCN(C(=O)N(C)C2CCN(CCOc3ccc(Cl)cc3)C2)C1 (centres undefined) |
| 48 | CN(C(=O)CCCC(=O)c1ccc(Cl)cc1)C1CCN(C(=O)N(C)C2CCN(CCCc3ccccc3)C2)C1 (centres undefined) |
| 5.3 | CN(C(=O)c1ccc(Oc2ccc(F)cc2)cc1)C1CCN(C(=O)N(C)C2CCN(CCCc3ccc(Cl)cc3)C2)C1 (centres undefined) |
| 14 | CN(C(=O)c1ccc(-c2ccc(C(F)(F)F)cc2)cc1)C1CCN(C(=O)N(C)C2CCN(CCS(=O)(=O)c3ccc(Cl)cc3)C2)C1 (centres undefined) |
| 7.3 | CN(C(=O)c1ccc(-c2ccc(C(F)(F)F)cc2)cc1)C1CCN(C(=O)N(C)C2CCN(CCCc3ccc(Cl)cc3)C2)C1 (centres undefined) |
